Source: patent US6649643B1, “Imidazol-4-ylmehanols and their use as inhibitors of steroid C17-20 lyase” (Takeda Chemical Industries, Ltd., priority 1999, dated 2003)
pIC50: −log10 of the molar value. Structures can show the parent of a compound that is named as a salt.

Assays:
Rat Steroid C17,20-lyase = target: T1, Rat Steroid C17,20-lyase (Rattus norvegicus, UniProt P11715); test: Inhibitory activity on a rat steroid C17,20-lyase in vitro; assay type: biochemical; details: rat testicular microsomes, 10 nM [1,2-3H]-17-α-hydroxyprogesterone, NADPH, 7 min at 37° C., products testosterone and androstenedione
T1 construct: Testes excised from 13-week old, male SD rats were homogenized, and testicular microsomes were prepared; from tissue; host or cells: testicular microsomes of 13-week old male SD rats
T1 sequence (P11715 1-507): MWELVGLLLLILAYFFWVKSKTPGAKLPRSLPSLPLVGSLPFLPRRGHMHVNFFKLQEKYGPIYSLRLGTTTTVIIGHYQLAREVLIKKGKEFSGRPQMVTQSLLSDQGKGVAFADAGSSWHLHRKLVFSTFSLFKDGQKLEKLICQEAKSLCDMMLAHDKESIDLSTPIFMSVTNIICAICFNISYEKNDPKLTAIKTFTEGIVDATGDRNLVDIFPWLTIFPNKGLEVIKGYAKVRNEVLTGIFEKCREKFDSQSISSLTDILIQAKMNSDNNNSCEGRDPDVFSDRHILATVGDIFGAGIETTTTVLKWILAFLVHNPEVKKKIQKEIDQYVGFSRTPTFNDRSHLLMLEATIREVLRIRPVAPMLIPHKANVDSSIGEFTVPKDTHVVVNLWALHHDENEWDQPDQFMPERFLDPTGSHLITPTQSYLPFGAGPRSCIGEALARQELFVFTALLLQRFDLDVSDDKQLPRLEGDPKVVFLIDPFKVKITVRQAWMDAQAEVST
Protocol: Assay of Inhibitory Activity on a Rat Steroid C17,20-lyase in Vitro
Inhibitory activity was determined according to the method described in The Prostate, vol. 26, 140-150(1995) with some modifications.
Testes excised from 13-week old, male SD rats were homogenized, and testicular microsomes were prepared by a series of centrifugation. The microsome protein (7 μg/10 μl) was added to 101 μl of 100 mM phosphate buffer (pH 7.4) in which 10 nM (final concentration) [1,2-3H]-17-α-hydroxyprogesterone, NADPH, and test compounds were dissolved. The reaction mixture was incubated for 7 min at 37° C., terminated by addition of 40 μl of ethyl acetate, and briefly centrifuged. The substrate and the products (testosterone and androstenedione) in the upper phase were separated by silica gel thin layer chromatography. Detection of the spots and measurement of the radioactivity were performed by a BAS 2000 Bioimage analyzer. The concentration of the test compounds necessary to reduce the concentration of the products by 50% (The concentration in the control group in which no test compound was added was taken as 100%) was calculated, and shown in Table 1.

[1] = test system: testosterone biosynthesis; test: Inhibitory activity on testosterone biosynthesis in rats; assay type: in vivo, rat; details: male SD rats, oral, 50 mg/kg, serum testosterone 2 h later by radioimmunoassay, percentage of control group
Protocol: Assay of Inhibitory Activity on Testosterone Biosynthesis in Rats
Test compounds were orally administered to 9-week old, male SD (Sprague-Dawley rats at a dose of 50 mg/kg. Two-h later blood was taken and testosterone concentration in serum was measured by radioimmunoassay. The percentage of the testosterone concentration of the groups of rats, which received test compounds, to that of the control group was calculated, and regarded as the inhibitory activity.

Structure (SMILES)	pIC50 (Rat Steroid C17,20-lyase)	Inhibitory activity on testosterone bioxynthesis (T/C, %) [1] [%]
CCC(O)(c1ccc2c3c(ccc2c1)OCC3)c1c[nH]cn1 (stereo not drawn) [Example 18, 1-(1,2-Dihydronaphtho[2,1-b]furan-7-yl)-1-(1H-imidazol-4-yl)-1-propanol]	7.74	7.4
CC(C)C(O)(c1ccc2cc(-c3cnco3)ccc2c1)c1c[nH]cn1 (stereo not drawn) [Example 7, 1-(1H-Imidazol-4-yl)-2-methyl-1-(6-(1,3-oxazol-5-yl)-2-naphthyl)-1-propanol]	7.85	
CC(C)C(O)(c1ccc2cc(-c3cn[nH]c3)ccc2c1)c1c[nH]cn1 (stereo not drawn) [Example 6, 1-(1H-Imidazol-4-yl)-2-methyl-1-(6-(1H-pyrazol-4-yl)-2-naphthyl)-1-propanol]	7.82	10
CNC(=O)c1ccc2cc(C(O)(c3c[nH]cn3)C(C)C)ccc2c1 (stereo not drawn) [Example 9, 6-(1-Hydroxy-1-(1H-imidazol-4-yl)-2-methyl-propyl)-N-methyl-2-naphthamide]	8.21	4.5
COc1cc2ccc([C@](O)(c3c[nH]cn3)C(C)C)cc2cc1OC [Example 22, (S)-(−)-1-(6,7-Dimethoxy-2-naphthyl)-1-(1H-imidazol-4-yl)-2-methyl-1-propanol.fumaric Acid Salt]	8.48	
CC(C)C(O)(c1ccc2cc(-c3ccco3)ccc2c1)c1c[nH]cn1 (stereo not drawn) [Example 2, 1-(6-(2-Furyl)-2-naphthyl)-1-(1H-imidazol-4-yl)-2-methyl-1-propanol]	7.55	
